Assay results published in patent US20170362228A1, “TETRAHYDRO-PYRIDO[3,4-b]INDOLE ESTROGEN RECEPTOR MODULATORS AND USES THEREOF” (Genentech, Inc., priority 2016, published 2017).
Like-named read-outs stand apart in the source and are kept apart here.

Columns and labels:
[1] = target: T1, estrogen receptor alpha (ESR1) (Homo sapiens, UniProt P03372); assay: Breast Cancer Cell ERa High Content Fluorescence Imaging Degradation Assay (Example 901); format: cell-based; conditions: Table 1a; MCF7 breast cancer cells, 4 hours; plateau of the maximal effect; DMSO and Fulvestrant define 0% and 100% changes in ESR1
T1 construct: endogenous in cells; host or cells: MCF7 breast cancer cells
T1 sequence (P03372 1-595): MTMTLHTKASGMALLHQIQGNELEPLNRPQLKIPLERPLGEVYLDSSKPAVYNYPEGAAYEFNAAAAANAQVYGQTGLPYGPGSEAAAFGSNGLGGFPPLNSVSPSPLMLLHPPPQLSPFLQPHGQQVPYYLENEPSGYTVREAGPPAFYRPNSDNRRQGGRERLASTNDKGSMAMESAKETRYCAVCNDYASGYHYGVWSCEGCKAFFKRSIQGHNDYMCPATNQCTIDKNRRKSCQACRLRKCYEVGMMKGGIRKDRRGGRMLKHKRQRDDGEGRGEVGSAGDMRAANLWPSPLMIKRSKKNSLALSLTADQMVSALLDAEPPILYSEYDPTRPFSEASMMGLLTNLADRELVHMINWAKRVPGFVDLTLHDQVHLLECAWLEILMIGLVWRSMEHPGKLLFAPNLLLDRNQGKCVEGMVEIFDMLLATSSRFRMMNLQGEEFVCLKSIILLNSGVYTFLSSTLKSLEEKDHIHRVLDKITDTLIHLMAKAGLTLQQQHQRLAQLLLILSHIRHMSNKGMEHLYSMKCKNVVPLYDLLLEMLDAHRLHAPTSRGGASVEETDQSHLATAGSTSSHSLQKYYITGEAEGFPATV
Procedure: MCF7 breast cancer cells were seeded on day 1 at a density of 10,000 cells per well in 384 well poly-lysine coated tissue culture plate (Greiner # T-3101-4), in 50 μL/well RPMI (phenol red free), 10% FBS (Charcoal stripped), containing L-glutamine. On day 2, compounds were prepared at 2 compound source concentrations: 100 μM and 1 μM (ultimately to give 2 overlapping titration curves), in a Labcyte low dead volume plate, 10 μL/well, and 10 μL of DMSO in designated wells for backfill, and 5 μM Fulvestrant (control compound) in designated wells. Compounds and controls were dispensed using a Labcyte Echo acoustic dispenser to dispense compounds with a predefined serial dilution (1.8×, 10 point, in duplicate) and appropriate backfill and control compounds (final total volume transferred was 417.5 nL and compound dispense volume ranges from 2.5 nL to 417.5 nL; 0.84% DMSO (v/v) final), ultimately producing a concentration range from 0.05 nM to 835 nM. Cell plates were incubated at 37° C., for 4 hours. Fixation and permeabilization were carried out using a Biotek EL406 plate washer and dispenser as follows. Cells were fixed by addition of 15 μL of 16% paraformaldehyde (Electron Microscopy Sciences #15710-S) directly to the 50 μL cell culture medium in each well using the peristaltic pump 5 μL cassette on a Biotek EL406 (final concentration of formaldehyde was 3.7% w/v). Samples were incubated 30 minutes. Well contents was aspirated and 50 μL/well of Phosphate Buffered Saline (PBS) containing 0.5% w/v bovine serum albumen, 0.5% v/v Triton X-100 (Antibody Dilution Buffer) was added to each well. Samples were incubated for 30 minutes. Well contents were aspirated and washed 3 times with 100 μL/well of PBS. Immunofluorescence staining of estrogen receptor alpha (ESR1) was carried out using a Biotek EL406 plate washer and dispenser as follows. The well supernatant was aspirated from the wells and 25 μL/well of anti-ESR1 mAb (F10) (Santa Cruz sc-8002) diluted 1:1000 in Antibody Dilution Buffer was dispensed. Samples were incubated for 2 hours at room temperature. Samples were washed 4 times with 100 μL/well of PBS. 25 uL/well of secondary antibody solution (Alexafluor 488 conjugate anti-mouse IgG (LifeTechnologies #A21202) diluted 1:1000 and Hoechst 33342 1 μg/ml diluted in Antibody Dilution Buffer) were dispensed into each well. Samples were incubated for 2 hours at room temperature. Samples were washed 3 times with 100 μL/well of PBS using a Biotek EL406. Quantitative fluorescence imaging of ESR1 was carried out using a Cellomics Arrayscan V (Thermo). Fluorescence images of the samples (Channel 1: XF53 Hoechst (DNA stain); Channel 2: XF53 FITC (ESR1 stain)) were acquired using a Cellomics VTI Arrayscan using the Bioapplication “Compartmental Analysis” using the auto-exposure (based on DMSO control wells) setting “peak target percentile” set to 25% target saturation for both channels. Channel 1 (DNA stain) was used to define the nuclear region (Circ). Measurements of “Mean_CircAvgIntCh2”, which is the Alexafluor 488 fluorescence intensity (ESR1) within the nuclear region, was measured on a per cell basis and averaged over all the measured cells. Data analysis was carried out using Genedata Screener Software, with DMSO and 5 nM Fulvestrant treated samples being used to define the 0% and 100% changes in ESR1. The “Robust Fit” method was used to define the inflexion point of curve (EC50) and the plateau of the maximal effect (Sinf). Degradation data for exemplary Formula I compounds is reported as ER-alpha MCF7 HCS Sinf(%) values in Table 1.

MCF7 cells = assay: In vitro cell proliferation assays (Examples 902 and 903), MCF7; format: cell-based; conditions: read-out: ER-alpha MCF7 HCS (EC50)
Procedure: Efficacy of estrogen receptor modulator compounds and chemotherapeutic compounds are measured by a cell proliferation assay employing the following protocol (Mendoza et al (2002) Cancer Res. 62:5485-5488).
The CellTiter-Glo® Luminescent Cell Viability Assay is a homogeneous method to determine the number of viable cells in culture based on quantitation of the ATP present, which signals the presence of metabolically active cells. The CellTiter-Glo® Assay is designed for use with multiwell plate formats, making it ideal for automated high-throughput screening (HTS), cell proliferation and cytotoxicity assays. The homogeneous assay procedure involves adding a single reagent (CellTiter-Glo® Reagent) directly to cells cultured in serum-supplemented medium. Cell washing, removal of medium or multiple pipetting steps are not required. The Cell Titer-Glo® Luminescent Cell Viability Assay, including reagents and protocol are commercially available (Promega Corp., Madison, Wis., Technical Bulletin TB288).
The assay assesses the ability of compounds to enter cells and inhibit cell proliferation. The assay principle is based on the determination of the number of viable cells present by quantitating the ATP present in a homogenous assay where addition of the Cell TiterGlo® reagent results in cell lysis and generation of a luminescent signal through the luciferase reaction. The luminescent signal is proportional to the amount of ATP present.
Procedure: Day 1—Seed Cell Plates (384-well black, clear bottom, microclear, TC plates with lid from Falcon #353962), Harvest cells, Seed cells at 1000 cells per 54 μl per well into 384 well Cell Plates for 3 days assay. Cell Culture Medium: RPMI or DMEM high glucose, 10% Fetal Bovine Serum, 2 mM L-Glutamine, P/S. Incubate 0/N (overnight) at 37° C., 5% CO2.
Day 2—Add Drug to Cells, Compound Dilution, DMSO Plates (serial 1:2 for 9 points). Add 20 μl of compound at 10 mM in the 2nd column of 96 well plate. Perform serial 1:2 across the plate (10 μl+20 μl 100% DMSO) for a total of 9 points using Precision Media Plates 96-well conical bottom polypropylene plates from Nunc (cat.#249946) (1:50 dilution). Add 147 μl of Media into all wells. Transfer 3 μl of DMSO+compound from each well in the DMSO Plate to each corresponding well on Media Plate using Rapidplate® (Caliper, a Perkin-Elmer Co.). For 2 drug combination studies, transfer one drug 1.5 μl of DMSO+compound from each well in the DMSO Plate to each corresponding well on Media Plate using Rapidplate. Then, transfer another drug 1.5 μl to the medium plate.
Drug Addition to Cells, Cell Plate (1:10 dilution): Add 6 μl of media+compound directly to cells (54 μl of media on the cells already). Incubate 3 days at 37° C., 5% CO2 in an incubator that will not be opened often.
Day 5—Develop Plates, Thaw Cell Titer Glo Buffer at room temperature: Remove Cell Plates from 37° C. and equilibrate to room temperature for about 30 minutes. Add Cell Titer-Glo® Buffer to Cell Titer-Glo® Substrate (bottle to bottle). Add 30 μl Cell Titer-Glo® Reagent (Promega cat.# G7572) to each well of cells. Place on plate shaker for about 30 minutes. Read luminescence on Analyst HT Plate Reader (half second per well).
Cell viability assays and combination assays: Cells were seeded at 1000-2000 cells/well in 384-well plates for 16 h. On day two, nine serial 1:2 compound dilutions were made in DMSO in a 96 well plate. The compounds were further diluted into growth media using a Rapidplate® robot (Zymark Corp., Hopkinton, Mass.). The diluted compounds were then added to quadruplicate wells in 384-well cell plates and incubated at 37° C. and 5% CO2. After 4 days, relative numbers of viable cells were measured by luminescence using Cell Titer-Glo® (Promega) according to the manufacturer's instructions and read on a Wallac Multilabel Reader® (PerkinElmer, Foster City). EC50 values were calculated using Prism® 4.0 software (GraphPad, San Diego). […]

Structure (SMILES)	ER-alpha MCF7 HCS (S inf) [1]	EC50 (MCF7 cells; Homo sapiens, MCF7, Table 1a)	EC50 (MCF7 cells; Table 1a)
C[C@@H]1Cc2c([nH]c3ccccc23)[C@@H](c2c(F)cc(C(O)C3CN(CCCF)C3)cc2F)N1C[C@@](C)(F)CO (stereo partly drawn) [Compound 107, (2R)-3-((1R,3R)-1-(2,6-difluoro-4-((1-(3-fluoropropyl)azetidin-3-yl)(hydroxy)methyl)phenyl)-3-methyl-1,3,4,9-tetrahydro-2H-pyrido[3,4-b]indol-2-yl)-2-fluoro-2-methylpropan-1-ol]	−94.23%	0.107 nM	–
C[C@@H]1Cc2c([nH]c3ccccc23)[C@@H](c2c(F)cc(C(O)C3CN(CCCF)C3)cc2F)N1C[C@](C)(F)CO (stereo partly drawn) [Compound 108, (2S)-3-((1R,3R)-1-(2,6-difluoro-4-((1-(3-fluoropropyl)azetidin-3-yl)(hydroxy)methyl)phenyl)-3-methyl-1,3,4,9-tetrahydro-2H-pyrido[3,4-b]indol-2-yl)-2-fluoro-2-methylpropan-1-ol]	−96.34%	0.056 nM	–
C[C@@H]1Cc2c([nH]c3ccccc23)[C@@H](c2c(F)cc(C(O)C3CN(CCCF)C3)cc2F)N1CC(F)(F)F (stereo partly drawn) [Compound 109, (3,5-difluoro-4-((1R,3R)-3-methyl-2-(2,2,2-trifluoroethyl)-2,3,4,9-tetrahydro-1H-pyrido[3,4-b]indol-1-yl)phenyl)(1-(3-fluoropropyl)azetidin-3-yl)methanol]	−98.1%	0.23 nM	–
C[C@@H]1Cc2c([nH]c3ccccc23)[C@@H](c2c(F)cc(C(O)C3CN(CCCF)C3)cc2F)N1CC(F)F (stereo partly drawn) [Compound 110]	−98.4%	0.082 nM	–
C[C@@H]1Cc2c([nH]c3ccccc23)[C@@H](c2c(F)cc([C@H](O)C3CN(CCCF)C3)cc2F)N1CC(C)(C)F [Compound 111, (R)-(3,5-difluoro-4-((1R,3R)-2-(2-fluoro-2-methylpropyl)-3-methyl-2,3,4,9-tetrahydro-1H-pyrido[3,4-b]indol-1-yl)phenyl)(1-(3-fluoropropyl)azetidin-3-yl)methanol]	−95.97%	0.066 nM	–
C[C@@H]1Cc2c([nH]c3ccccc23)[C@@H](c2c(F)cc([C@@H](O)C3CN(CCCF)C3)cc2F)N1CC(C)(C)F [Compound 112, (S)-(3,5-difluoro-4-((1R,3R)-2-(2-fluoro-2-methylpropyl)-3-methyl-2,3,4,9-tetrahydro-1H-pyrido[3,4-b]indol-1-yl)phenyl)(1-(3-fluoropropyl)azetidin-3-yl)methanol]	−99.15%	0.05 nM	–
C[C@@H]1Cc2c([nH]c3ccc(F)cc23)[C@@H](c2c(F)cc(C(O)C3CN(CCCF)C3)cc2F)N1CC(C)(F)CO (stereo partly drawn) [Compound 113, 3-((1R,3R)-1-(2,6-difluoro-4-((1-(3-fluoropropyl)azetidin-3-yl)(hydroxy)methyl)phenyl)-6-fluoro-3-methyl-1,3,4,9-tetrahydro-2H-pyrido[3,4-b]indol-2-yl)-2-fluoro-2-methylpropan-1-ol]	−91.41%	–	0.884 nM
C[C@@H]1Cc2c([nH]c3ccccc23)[C@@H](c2ccc(C(O)C3CN(CCCF)C3)cc2F)N1CC(F)(F)CO (stereo partly drawn) [Compound 116, 2,2-difluoro-3-((1R,3R)-1-(2-fluoro-4-((1-(3-fluoropropyl)azetidin-3-yl)(hydroxy)methyl)phenyl)-3-methyl-1,3,4,9-tetrahydro-2H-pyrido[3,4-b]indol-2-yl)propan-1-ol]	−98.7%	0.031 nM	–
C[C@@H]1Cc2c([nH]c3ccccc23)[C@@H](c2ccc(C(O)C3CN(CCCF)C3)cc2)N1CC(F)(F)CO (stereo partly drawn) [Compound 117, 2,2-difluoro-3-((1R,3R)-1-(4-((1-(3-fluoropropyl)azetidin-3-yl)(hydroxy)methyl)phenyl)-3-methyl-1,3,4,9-tetrahydro-2H-pyrido[3,4-b]indol-2-yl)propan-1-ol]	−100%	0.066 nM	–
